Series [1] concerns MRSA (ATCC CRM 12493). Format: cell-based, methicillin-resistant S. aureus. The procedure: The MBIC and MBEC assays were performed to measure the inhibition and eradication of bacterial biofilm in the presence of different concentrations of peptides. Gram-positive bacteria were inoculated in Luria–Bertani (LB) broth at 37 °C overnight whereas Gram-negative bacteria were inoculated in tryptic soy broth (TSB), and then sub-cultured until reaching the logarithmic growth phase by measuring the OD values at a wavelength of 550nm. For the MBIC assay, 99 µL of diluted bacterial suspension (5 × 10^5 CFU/mL) was mixed with 1 µL of prepared peptide solutions in the wells of a round-bottomed 96-well plate, achieving the final concentrations from 512 to 1 µM, and then incubated at 37 °C for 24 h in a shaking incubator at 200 revolutions per minute (rpm). After this, the plate was washed twice by PBS and fixed with methanol for 30 min. For MBEC assay, 100 µL of diluted bacterial suspension (5 × 10^5 CFU/mL) was seeded into a round-bottomed 96-well plate and incubated at 37 °C for 24 h in a shaking incubator at 200 rpm to obtain mature biofilm. After this, plates were washed twice by PBS and incubated with different concentrations of peptide solution from 512 to 1 µM at 37 °C for 24 h. Afterwards, the plate was washed twice with PBS and fixed with methanol for 30 min. Then, both MBIC and MBEC plates were stained by 130 μL of 0.1% (g/v) crystal violet solutions for 30 min and washed with PBS until no apparent staining was observed. Evaporating crystal violet stains were dissolved by 33% (v/v) acetic acid, and the absorbance values were measured by a Synergy HT Microplate Reader (BioTek, Minneapolis, MN, USA) set to 595 nm. The minimum concentration that inhibited the formation of biofilm was defined when compared to the negative control group, as the MBIC. The minimum concentration that eradicated the biofilm was defined, when compared to the negative control group, as the MBEC. The biofilm assays were performed in triplicate.

The test system of series [2] is H838. The series is described as follows: MTT antiproliferative assay. Format: cell-based, human. The procedure: (§1) The proliferative inhibition effect of GL-29 and its analogues were assessed by MTT assay as described in a previous study. HaCaT cell line (human keratinocytes) and four cancer cell lines, U251MG (human glioblastoma astrocytoma cell line), HCT116 (human colon cancer cell line), H157 (human non-small lung cancer cell line) and H838 (human lung carcinoma cancer cell line), were used in this assay. A total of 8000 cells/per well were seeded in the 96-well plate for 24 h and then treated with peptides at the concentration from 100 μM to 100 nM for 24 h. In this assay, 1% Triton X-100 and PBS were set as a positive and negative control, respectively. After which, the formazan was dissolved in DMSO and the OD value was detected by use of a Synergy HT plate reader (BioTek, Minneapolis, MN, USA) at λ = 570 nm.
(§2) Data were analysed using Prism (Version 8.2.1; GraphPad Software, Inc, San Diego, CA, USA). Error bars in the graphs represented standard errors of means (SEM) of nine repeats from three independent tests. The statistical significance was calculated using two-way ANOVA and is indicated as ns (non-significant difference), * (p < 0.05), ** (p < 0.01), *** (p < 0.001), ****(p < 0.0001). The HC10, HC50 and IC50 values were calculated using the online tool AAT Bioquest (https://www.aatbio.com/index.html, accessed on 6 May 2022).

Series [3] deals with HCT116. The series is described as follows: MTT antiproliferative assay. It counts as cell-based, human. The procedure:
as §1, §2
Background: Formazan colour is commonly taken as a measure of viable cells.

For series [4], the system named is U251MG. The series is described as follows: MTT antiproliferative assay. It counts as cell-based, human. As for the experimental part:
as §1, §2

Series [5] concerns horse erythrocytes. Format: cell-based. As to conditions: red cells of horse, 2 h. The procedure:
The haemolysis assays were performed by incubating prewashed erythrocyte suspension obtained from fresh defibrinated horse blood (TCS Biosciences Ltd., Buckingham, UK) with a range of peptides at final concentrations from 512 to 1 μM, for 2 h at 37 °C. The red cell suspensions were washed with phosphate-buffered saline (PBS) until the supernatant was clear and then diluted with PBS to form a 2% cell suspension. Peptides were 2-fold diluted by the 2% cell suspension to reach the final concentration range from 512 to 1 μM. The haemolysis of the cell suspensions with either 1% (v/v) Triton X-100 or PBS, were considered as positive controls and negative controls, respectively. After incubation, the extent of haemolysis was determined by measuring the absorbance of the supernatant from each sample at 570 nm with a Synergy HT plate reader (BioTek, USA).
as §2

The test system of series [6] is human keratinocyte cell line, HaCaT. Format: cell-based. To be noted: 24 h. The procedure:
as §1, §2

Series [7] concerns H157. In words: MTT antiproliferative assay. It counts as cell-based, human. As to conditions: 24 h. The procedure: as §1, §2
Series [8] deals with S. aureus (ATCC CRM 6538). In words: SYTOX Green dye uptake membrane permeability assay. It counts as cell-based, Staphylococcus aureus. As to conditions: 4 μM peptide, 2 h. As for the experimental part:
Bacteria were inoculated into TSB medium (Gram-positive bacteria) or LB medium (Gram-negative bacteria) at 37 °C overnight, and then sub-cultured at 37 °C for about 2.5 h. Subsequently, the cell cultures were centrifuged at 1000× g at 4 °C for 10 min to collect bacteria cells at the bottom. After the cells were washed twice with 5% TSB or 5% LB in 0.85% NaCl solution, they were resuspended with 5% TSB or 5% LB in 0.85% NaCl solution to obtain a cell concentration of 1 × 10^8 CFU /mL by measuring the optical density (OD) value at 590 nm (Gram-positive bacteria: 0.68–0.72, Gram-negative bacteria: 0.65–0.7). The cell suspensions were then mixed with peptides at a range of concentrations, according to the MIC of antimicrobial assays, in a black 96 well plate and incubated for 2 h at 37 °C. After the incubation, the cells were stained with SYTOX^TM Green Nucleic Acid Stain (Thermo Fisher Scientific, Waltham, MA, USA) dissolved in 5% TSB in 0.85% NaCl to a final concentration of 5 μM and placed in a shaking incubator for 5 min avoiding from light. Bacterial cells treated with 16 μM melittin were used as positive control. The fluorescence intensity was measured with a Synergy HT plate reader (BioTek, USA) at excitation and emission wavelengths of 485 and 528 nm, respectively.

For series [9], the system named is Escherichia coli (E. coli). More on the design: method as in PMID 21911019. As to conditions: cited from earlier work.
Series [10] concerns methicillin-resistant S. aureus (MRSA). More on the design: method as in PMID 21911019. To be noted: cited from earlier work.

In brackets after ≈: the same amount, converted by molar mass. Where two headings read alike, the source gives them in different places. Where a SMILES comes first, the peptide text is derived from it. Where no end group is shown, it is not given here.

As for GLWNSIKIA-NH2 [GL-9, GLWNSIKIA-NH2], the MBEC in series [1] (biofilm eradication, MRSA (ATCC CRM 12493)) is more than 512 µM. In [1] (biofilm formation, MRSA (ATCC CRM 12493)), the MBIC was more than 512 µM. The “inhibition of proliferative activity” value in series [2] (H838, 100 µM (highest concentration)) was 20–40%; in series [3] (HCT116, 100 µM (highest concentration)), 20–40%; in [4] (100 µM (highest concentration)), 20–40%.

Regarding GLWNSIKIAGKKLFVNVLDKIR-NH2 [GL-22], the HC10 in series [5] stood at 87.304 µM. Also, the HC50 (usually the concentration that lyses half of the red blood cells) in [5] is 254.11 µM. The IC50 (commonly the midpoint of a concentration-inhibition curve) turned out to be 38.9 µM in series [6]; 9.36 µM in series [7]; 25.2 µM in series [2] (H838, MTT, 24 h); 129 µM in [3] (HCT116, MTT, 24 h); 40.6 µM in series [4] (MTT, 24 h). Moreover, the MBEC in series [1] (ATCC CRM 12493, 24 h) is more than 512 µM. In addition, the MBIC in [1] (ATCC CRM 12493, 24 h) was 8 µM.

On to `CC[C@H](C)[C@H](NC(=O)[C@H](CCCCN)NC(=O)[C@@H](NC(=O)[C@H](CO)NC(=O)[C@H](CC(N)=O)NC(=O)[C@H](Cc1c[nH]c2ccccc12)NC(=O)[C@H](CC(C)C)NC(=O)CN)[C@@H](C)CC)C(=O)N[C@@H](C)C(=O)NCC(=O)N[C@@H](CCCCN)C(=O)N[C@@H](CCCCN)C(=O)N[C@@H](CC(C)C)C(=O)N[C@@H](Cc1ccccc1)C(=O)N[C@H](C(=O)N[C@@H](CC(N)=O)C(=O)N[C@H](C(=O)N[C@@H](CC(C)C)C(=O)N[C@@H](CC(=O)O)C(=O)N[C@@H](CCCCN)C(=O)N[C@H](C(=O)N[C@@H](CCCNC(=N)N)C(=O)N[C@H]1CSSC[C@@H](C(=O)O)NC(=O)CNC(=O)CNC(=O)[C@H](C)NC(=O)[C@H](C(C)C)NC(=O)[C@H](CCCCN)NC1=O)[C@@H](C)CC)C(C)C)C(C)C` [GL-29] (HELM PEPTIDE1{G.L.W.N.S.I.K.I.A.G.K.K.L.F.V.N.V.L.D.K.I.R.C.K.V.A.G.G.C}$PEPTIDE1,PEPTIDE1,23:R3-29:R3$$$V2.0; N-terminus and C-terminus assumed; bridges inferred), for which, in series [5], the HC10 is 5.86 µM and the HC50 stood at 33.03 µM. For the same molecule, the IC50 in [6] came to 5.05 µM. Moreover, in series [1] (ATCC CRM 12493, 24 h), the MBEC was 256 µM and the MBIC was found to be 8 µM. Also, the “membrane permeabilisation (SYTOX Green uptake)” value in series [8] was found to be 100%. Further, in [9], the MIC (usually the lowest concentration that inhibits growth of the organism) is 1.6 µM (≈ 5.01 µg/mL). The MIC in series [10] was 12.5 µM (≈ 39.1 µg/mL).
